US20250228842A1, “USES OF A SOMATOSTATIN MODULATOR FOR THE TREATMENT OF CARCINOID SYNDROME” (Crinetics Pharmaceuticals, Inc., priority 2022, published 2025)
Each block holds one compound with its values, some of them ahead of it.

What was measured:
[1] = test system: insulin-like growth factor-1 (IGF-1) level; assay: Phase 2 acromegaly trials (ACROBAT Edge / Evolve): IGF-1 level; assay type: in vivo, human
Description: (§1) An open label exploratory study designed to evaluate the safety, efficacy, and pharmacokinetics of Compound A (also known as paltusotine) in subjects with acromegaly that are treated with somatostatin analogue (SSA) based treatment regimens.
10 mg HMG capsule formulation. Multiple capsules were swallowed with water depending on dose specified for a given period/cohort.
Primary Outcome Measures: Change from baseline (mean of Screening values) in insulin-like growth factor-1 (IGF-1) level [Time Frame: 13 Weeks].
Primary Outcome Measures: Proportion of subjects who meet responder criteria (based on the mean of two consecutive insulin-like growth factor-1 [IGF-1] measurements ≤upper limit of normal [ULN]) (Time Frame: 13 Weeks).
(§2) Secondary Outcome Measures: 1) Change in IGF-1 levels [Time Frame: From Week 10 to Week 13]. 2) Change in growth hormone (GH) levels [Time Frame: From Week 8 to Week 13]. 3) Change in patient assessed symptoms of acromegaly [Time Frame: From Week 10 to Week 13]. Total score computed by adding each of the individual acromegaly symptom intensities (headache pain, joint pain, sweating, fatigue, weakness in legs, swelling, numbness or tingling).
(§3) The primary hypothesis was that the group would show no change in the median IGF-1 at Week 13 versus baseline.

[2] = Phase 1 multi-cohort single dose study, plasma pharmacokinetics in healthy subjects; assay type: in vivo, human
Description: Cohort 1: To characterize performance of 10 mg tablets prepared by spray-dried dispersion (SDD) of Compound A-HCl salt.
Cohort 2: To evaluate the relative bioavailability of 10 mg SDD tablets compared to the Compound A-HCl hot melt granulation (HMG) formulation, 10 mg capsules. To determine the effect of timing of food administration on pharmacokinetics of low dose of the 10 mg SDD tablets.
Cohort 5: To determine the effect of the proton-pump inhibitor (PPI), lansoprazole, on the pharmacokinetics of a 60 mg dose of SDD tablets. To determine the effect of a low-fat meal on the pharmacokinetics of a 60 mg dose of SDD tablets.
The SDD tablets were evaluated. Up to twelve (12) healthy male and female subjects were enrolled in each cohort. Cohort 1 consisted of 4 periods: In Period 1, subjects were administered a proton-pump inhibitor (lansoprazole, 15 mg BID for 3 days (from Day-3), taken orally at least 30 min prior to a meal, once in the morning and once in the evening). On the fourth day (Day 1 of study), fasted subjects will take the last dose of lansoprazole (15 mg) 60 min prior to 20 mg Compound A (2×10 mg of the SDD tablets). In Period 2, fasted subjects were administered 20 mg Compound A (2×10 mg of the SDD tablets). In Period 3, fasted subjects were administered 20 mg Compound A (2×10 mg of the SDD tablets) with a high-fat, high-calorie meal. In Period 4, fasted subjects will take up to 80 mg Compound A (up to 8×10 mg of the SDD tablets). The actual dose was selected based on the pharmacokinetic data from Period 2.
For Period 1: In the evening before dosing (Day −1), subjects were administered their evening dose of 15 mg lansoprazole, provided an evening meal at least 30 min after administration of lansoprazole, and then were required to fast overnight (≥10 hr) on Day −1. […]
The cohort consisted of three periods. The PK of 60 mg paltusotine administered as 3×20 mg SDD tablets was assessed using the following criteria: effect of a low-fat meal on the PK of paltusotine (Period 1 and Period 3) and effect of the PPI lansoprazole on the PK of paltusotine (Period 2) as follows: […]

[3] = test system: growth hormone (GH) levels; assay: Phase 2 acromegaly trials (ACROBAT Edge / Evolve): GH level; assay type: in vivo, human
Description: as §1, §2, §3

[4] = Tolerability in studies on subjects with acromegaly; assay type: in vivo, human; conditions: 40 mg
[5] = test system: carcinoid syndrome; conditions: cited from earlier work
[6] = after 13 weeks of treatment, acromegaly patients previously treated with injected SRL depots

reduction of exposures (Cmax and AUC) ([2]; when administered with PPI, 60 mg): ~40% | reduction of exposures (Cmax and AUC) ([2]; when administered with high-fat meal): > 80% | reduction of exposures (Cmax and AUC) ([2]; when administered with low-fat meal, 60 mg): ~60%
SMILES: N#Cc1cccc(-c2ccc3ncc(-c4cc(F)cc(F)c4)c(N4CCC(N)CC4)c3c2)c1O [Compound A, 3-(4-(4-amino-piperidin-1-yl)-3-(3,5-difluoro-phenyl)-quinolin-6-yl)-2-hydroxy-benzonitrile]
IGF-1 levels vs baseline [1, 6]: did not significantly change from baseline | IGF-1 after withdrawal ([1]; within 2 weeks after withdrawal): Rise in IGF-1 after withdrawal | GH levels vs baseline [3, 6]: did not significantly change from baseline | GH after withdrawal ([3]; after withdrawal): Rise in GH after withdrawal

SMILES: Cl.N#Cc1cccc(-c2ccc3ncc(-c4cc(F)cc(F)c4)c(N4CCC(N)CC4)c3c2)c1O [Compound A-HCl, 3-[4-(4-amino-piperidin-1-yl)-3-(3,5-difluoro-phenyl)-quinolin-6-yl]-2-hydroxy-benzonitrile monohydrochloride]
steady state IGF-1 change vs baseline (last LA-SRL injection) ([1]; 10 and 20 mg per day, acromegaly patients previously treated with LA-SRLs): above baseline | steady state IGF-1 change from baseline (last LA-SRL injection) ([1]; 30/day and 40 mg/day, acromegaly patients previously treated with LA-SRLs): near zero | tolerability [4]: well tolerated

SMILES: C[C@@H](O)[C@@H]1NC(=O)[C@H](CCCCN)NC(=O)[C@@H](Cc2c[nH]c3ccccc23)NC(=O)[C@H](Cc2ccccc2)NC(=O)[C@@H](NC(=O)[C@H](N)Cc2ccccc2)CSSC[C@@H](C(=O)N[C@H](CO)[C@@H](C)O)NC1=O [octreotide]
patients with carcinoid syndrome who respond [5]: 80%
